Test results from paper PMC6364417, “Kinase inhibitor library screening identifies synergistic drug combinations effective in sensitive and resistant melanoma cells” (Journal of Experimental & Clinical Cancer Research : CR, 2019).
Read-outs that look alike come from different tables or passages of the source. One block for each molecule: values may come before it.

Experiments:
[1] = tested on: A375 cells (parental); test: Dose-response curves and IC50, PrestoBlue cell viability, 72 h; assay type: cell-based, human; conditions: read-out: Half-maximal inhibitory concentration value (IC50), Mean
[2] = tested on: A375-XP cells (Vemurafenib-resistant); test: as above; assay type: cell-based, human; conditions: n.e. = did not suppress growth below 50% in the tested concentration range; for IC50: read-out: Half-maximal inhibitory concentration value (IC50), Mean
[3] = tested on: A375-GP cells (Dabrafenib-resistant); test: as above; assay type: cell-based, human; conditions: n.e. = did not suppress growth below 50% in the tested concentration range; for IC50: read-out: Half-maximal inhibitory concentration value (IC50), Mean
[4] = tested on: NHDF (normal human dermal fibroblasts); test: Dose-response curves and IC50 in non-cancer cells, cell viability, 72 h; conditions: for IC50: Homo sapiens, NHDF, read-out: Half-maximal inhibitory concentration (IC50), NHDF Mean; for effect on healthy cells, cell viability (in words): fibroblasts (NHDF)
Protocol: (§1) The IC50 values (nM) were calculated as indicated in Methods.

[5] = tested on: NHEM (normal human epidermal melanocytes); test: as above; conditions: for effect on healthy cells, cell viability (in words): melanocytes (NHEM)
Protocol: as §1

[6] = tested on: A375 cells; test: Synergy determination with the Chou-Talalay method (CompuSyn), cell viability 72 h; assay type: cell-based, human; conditions: 72 h cell viability, Chou-Talalay / Synergyfinder
[7] = tested on: A375 parental cells expressing iRFP; test: Long-term inhibitor treatment, iRFP fluorescence proliferation monitoring; assay type: cell-based, human
Protocol: A375 parental and BRAFi-resistant cells, virally transduced with the near-infrared fluorescent protein (iRFP) were seeded at a density of 2500 cells/well in a 24-well plate (Greiner) in at least technical triplicates. Inhibitors, single or in combination, were added at the indicated amounts and replenished every 72 h for a duration of 76 days. To assess whether any remaining cells have become resistant to the treatment and would re-emerge, the drugs were removed and the cells underwent “drug holidays” for an additional 21 days. During the long-term treatment, cell proliferation was monitored bi-weekly on a LI-COR Odyssey Infrared Imaging System (LI-COR Biosciences). Fluorescence intensity was quantified with the Image Studio™ Lite software (LI-COR Biosciences).

[8] = tested on: melanoma cell lines; conditions: several other melanoma cell lines; cited from earlier work
[9] = tested on: 501Mel cells (parental); test: Kinase inhibitor library screening, PrestoBlue cell viability, 1 or 10 μM, 72 h; conditions: 501Mel Parental, in %
Method in brief: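 Kinase inhibitors added at two fixed concentrations; 72 h exposure; PrestoBlue readout; % viability vs untreated; n ≥ 2 per line.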

[10] = tested on: 501Mel-GP cells (Dabrafenib-resistant); test: as above; conditions: 501Mel GP, in %
[11] = tested on: 501Mel-XP cells (Vemurafenib-resistant); test: as above; conditions: 501Mel XP, in %
[12] = tested on: A375 cells (parental); test: as above; conditions: A375 Parental, in %
[13] = tested on: A375-GP cells (Dabrafenib-resistant); test: as above; conditions: A375 GP, in %
[14] = tested on: A375-XP cells (Vemurafenib-resistant); test: as above; conditions: A375 XP, in %
[15] = tested on: IGR37 cells (parental); test: as above; conditions: IGR37 Parental, in %
[16] = tested on: IGR37-GP cells (Dabrafenib-resistant); test: as above; conditions: IGR37 GP, in %
[17] = tested on: IGR37-XP cells (Vemurafenib-resistant); test: as above; conditions: IGR37 XP, in %
[18] = tested on: Tyr15 phosphorylation of CDK1 (P-cdc2); test: Western blot, phospho-cdc2 (Tyr15); assay type: cell-based, human; conditions: parental and resistant A375 cells, 3 h treatment
Protocol: (§4) Cells were seeded at a density of 10^5 cells/well in 24-well plates (Greiner). 24 h post seeding, cells were treated with inhibitors at indicated amounts for 3 h and/or 24 h. […] The following primary antibodies were used: anti-phospho-CHK1 (Ser317) (Cell Signalling Technology, 1:1000), anti-CHK1 (Cell Signalling Technology, 1:1000), anti-phospho-cdc2 (Tyr15) (Cell Signalling Technology, 1:1000), anti-cdc2 (Cell Signalling Technology, 1:1000), anti-PARP (Cell Signalling Technology, 1:1000), anti-cleaved-PARP (Cell Signalling Technology, 1:1000), anti-phospho-Erk (Tyr202/Tyr204) (Cell Signalling Technology, 1:2000), anti-Erk1/2 (Santa Cruz, Erk1 = 1:1000, Erk2 = 1:2000), anti-phospho-Akt (Ser473) (Cell Signalling Technology, 1:1500), anti-Akt1/2 (Santa Cruz, 1:1000), anti-Vinculin (Abcam, 1:1000) and anti-Tubulin (Santa Cruz, 1:5000). HRP-labeled secondary antibodies were purchased from Cell Signaling Technology (Boston, MA).

[19] = tested on: PARP cleavage; test: Western blot, PARP cleavage in A375 cells; assay type: cell-based, human; conditions: A375, A375-XP, A375-GP; 24 h treatment
Protocol: as §4

[20] = tested on: A375 cells (parental sensitive) tumors; test: In vivo assay, subcutaneous melanoma tumors in NSG mice; design: species or system NOD scid gamma (NSG) mice; conditions: NSG mice with A375 or A375-XP tumors, 8 days of daily treatment
Protocol: NOD scid gamma (NSG) mice were bred in-house and experiments were performed according to all applicable laws and regulations, after receiving approval by the institution’s animal experimentation ethics committee and the veterinarian service of the Ministry of Agriculture (Permit Number: 18-MDM-01). Single parental sensitive A375 cells (0.5 × 10^6 cells) and Vemurafenib-resistant A375-XP cells (2 × 10^6 cells) were resuspended in 100 μL of 1:1 mixed serum-free medium and matrigel (BD Biosciences) and injected subcutaneously in 6–8 week-old mice. […] Control mice received the respective vehicle by oral gavage and intraperitoneal injection. […] Statistical analysis was done using a two-way ANOVA followed by post-hoc Tukey’s multiple comparison tests.

[21] = tested on: IGR37 cells (parental); test: Dose-response curves and IC50, PrestoBlue cell viability, 72 h; conditions: Homo sapiens, IGR-37, 72 h, read-out: Half-maximal inhibitory concentration (IC50)
Protocol: (§5) All inhibitors used in this study were purchased from Selleck Chemicals (Houston, USA). They were dissolved in DMSO to a stock concentration of 10 mM according to the manufacturer’s instructions and stored at − 80 °C. […] Cell viability was measured with the PrestoBlue Cell Viability Reagent (ThermoFisher Scientific) on a CLARIOstar Monochromator microplate reader (BMG Labtech). Using the GraphPad Prism v5.04 software, the half-maximal inhibitor concentration values (IC50) were determined from the curve using the nonlinear log (inhibitor) vs response-variable slope (four parameters) equation. […] The IC50’s were determined for 3 biological replicates and are listed with their standard deviations.
(§6) Values represent the mean of at least three biological replicates; one representative curve of at least 3 biological replicates is depicted. _XP: cells resistant to Vemurafenib (red), _GP: cells resistant to Dabrafenib (green).

[22] = tested on: IGR37-XP cells (Vemurafenib-resistant); test: as above; conditions: Homo sapiens, 72 h, read-out: Half-maximal inhibitory concentration (IC50)
Protocol: as §5, §6

[23] = tested on: IGR37-GP cells (Dabrafenib-resistant); test: as above; conditions: Homo sapiens, 72 h, read-out: Half-maximal inhibitory concentration (IC50)
Protocol: as §5, §6

[24] = tested on: 501Mel cells (parental); test: as above; conditions: Homo sapiens, 72 h, read-out: Half-maximal inhibitory concentration (IC50)
Protocol: as §5, §6

[25] = tested on: 501Mel-XP cells (Vemurafenib-resistant); test: as above; conditions: Homo sapiens, 72 h, read-out: Half-maximal inhibitory concentration (IC50)
Protocol: as §5, §6

[26] = tested on: 501Mel-GP cells (Dabrafenib-resistant); test: as above; conditions: Homo sapiens, 72 h, read-out: Half-maximal inhibitory concentration (IC50)
Protocol: as §5

[27] = tested on: P-Akt levels; test: Western blot, phospho-Akt; assay type: cell-based, human; conditions: A375 cells, 3 h treatment
Protocol: (§2) Cells were seeded at a density of 10^5 cells/well in 24-well plates (Greiner). 24 h post seeding, cells were treated with inhibitors at indicated amounts for 3 h and/or 24 h. Western blot analysis was performed as described before. The following primary antibodies were used: anti-phospho-CHK1 (Ser317) (Cell Signalling Technology, 1:1000), anti-CHK1 (Cell Signalling Technology, 1:1000), anti-phospho-cdc2 (Tyr15) (Cell Signalling Technology, 1:1000), anti-cdc2 (Cell Signalling Technology, 1:1000), anti-PARP (Cell Signalling Technology, 1:1000), anti-cleaved-PARP (Cell Signalling Technology, 1:1000), anti-phospho-Erk ([…]) (Cell Signalling Technology, 1:2000), anti-Erk1/2 (Santa Cruz, Erk1 = 1:1000, Erk2 = 1:2000), anti-phospho-Akt (Ser473) (Cell Signalling Technology, 1:1500), anti-Akt1/2 (Santa Cruz, 1:1000), anti-Vinculin (Abcam, 1:1000) and anti-Tubulin (Santa Cruz, 1:5000). HRP-labeled secondary antibodies were purchased from Cell Signaling Technology (Boston, MA).
(§3) Supplementary file 13046_2019_1038_MOESM6_ESM.pdf: Additional file 6: Figure S4. Western blot analysis for selected drug treatments and apoptosis assays in healthy and melanoma cells. […] Cells were treated for 3 h with indicated concentrations of inhibitors. […] P-cdc2 (CDK1), cdc2 (CDK1), p-Chk1 and Chk1 were detected after 3 h drug treatment, while PARP cleavage was detected after 24 h treatment. […]

[28] = tested on: Erk phosphorylation; test: Western blot, phospho-Erk; assay type: cell-based, human; conditions: A375 cells, 3 h treatment
Protocol: as §2, §3

[29] = tested on: melanoma tumors; conditions: cited from earlier work
[30] = Homo sapiens, A-375, n.e. = did not suppress growth below 50% in the tested concentration range

SMILES: CO[C@@H](C(=O)N1Cc2n[nH]c(NC(=O)c3ccc(N4CCN(C)CC4)cc3)c2C1)c1ccccc1 [Danusertib]
IC50 [1, 30]: 328 nM
IC50 ([2]; Homo sapiens): 295 nM
IC50 ([3]; Homo sapiens): 257 nM
IC50 [4]: 1170 nM
IC50 ([5]; Homo sapiens, Melanocyte, read-out: Half-maximal inhibitory concentration (IC50), NHEM Mean): 370 nM
synergistic effects with the BRAF inhibitors Vemurafenib and/or Dabrafenib (in words) [6]: clear synergistic effects
long-term cell growth under drug until day 76 (in words) ([7]; drugs replenished every 72 h, indicated concentrations): inconsistent
apoptosis and migration of melanoma cell lines (in words) [8]: induced apoptosis and inhibited migration

SMILES: C=CCn1c(=O)c2cnc(Nc3ccc(N4CCN(C)CC4)cc3)nc2n1-c1cccc(C(C)(C)O)n1 [MK-1775, reference compound]
cell viability (kinase inhibitor library screening) ([9]; 1μΜ): 35.1
cell viability (kinase inhibitor library screening) ([9]; 10μΜ): 24.2
cell viability (kinase inhibitor library screening) ([10]; 1μΜ): 27.8
cell viability (kinase inhibitor library screening) ([10]; 10μΜ): 24.0
cell viability (kinase inhibitor library screening) ([11]; 1μΜ): 11.1
cell viability (kinase inhibitor library screening) ([11]; 10μΜ): 6.5
cell viability (kinase inhibitor library screening) ([12]; 1μΜ): 25.2
cell viability (kinase inhibitor library screening) ([12]; 10μΜ): 4.9
cell viability (kinase inhibitor library screening) ([13]; 1μΜ): 17.5
cell viability (kinase inhibitor library screening) ([13]; 10μΜ): 1.8
cell viability (kinase inhibitor library screening) ([14]; 1μΜ): 43.8
cell viability (kinase inhibitor library screening) ([14]; 10μΜ): 8.7
cell viability (kinase inhibitor library screening) ([15]; 1μΜ): 20.4
cell viability (kinase inhibitor library screening) ([15]; 10μΜ): 9.8
cell viability (kinase inhibitor library screening) ([16]; 1μΜ): 46.6
cell viability (kinase inhibitor library screening) ([16]; 10μΜ): 41.7
cell viability (kinase inhibitor library screening) ([17]; 1μΜ): 45.0
cell viability (kinase inhibitor library screening) ([17]; 10μΜ): 36.2
IC50 [1, 30]: 388 nM
IC50 ([2]; Homo sapiens): 809 nM
IC50 ([3]; Homo sapiens): 325 nM
effect on healthy cells, cell viability (in words) [4]: very modest effects
effect on healthy cells, cell viability (in words) [5]: very modest effects
synergistic effects with the BRAF inhibitors Vemurafenib and/or Dabrafenib (in words) [6]: clear synergistic effects
inhibitory CDK1 (cdc2) phosphorylation level (in words) [18]: reduced levels of inhibitory CDK1 (cdc2) phosphorylation
Cleavage of PARP (in words) [19]: induced
body weight and side effects during treatment (in words) [20]: did not lose weight
IC50 [21]: 286 nM
IC50 [22]: 201 nM
IC50 [23]: 289 nM
IC50 [24]: 257 nM
IC50 [25]: 220 nM
IC50 [26]: 289 nM

SMILES: CNC(=O)c1ccccc1Nc1nc(Nc2ccc(N3CCOCC3)cc2OC)ncc1Cl [TAE226]
IC50 ([1]; n.e. = did not suppress growth below 50% in the tested concentration range): 489 nM
IC50 [2]: 176 nM
IC50 [3]: 301 nM
synergistic effects with the BRAF inhibitors Vemurafenib and/or Dabrafenib (in words) [6]: Vemurafenib showed synergism
P-Akt levels (in words) [27]: blocking P-Akt levels

Further lines, with some results ahead:

Half-maximal inhibitory concentration value (IC50), Mean [2]: n.e.
Half-maximal inhibitory concentration value (IC50), Mean [3]: n.e.
SMILES: CCCS(=O)(=O)Nc1ccc(F)c(C(=O)c2c[nH]c3ncc(-c4ccc(Cl)cc4)cc23)c1F [Vemurafenib]
IC50 [1, 30]: 135 nM
effect on healthy cells, cell viability (in words) [4]: did not have any effect
effect on healthy cells, cell viability (in words) [5]: did not have any effect
Erk phosphorylation (in words) [28]: inhibition of Erk phosphorylation by Vemurafenib was confirmed

IC50 ([2]; Homo sapiens): 21 nM
IC50 ([3]; Homo sapiens): 15 nM
SMILES: CC[C@@H]1C(=O)N(C)c2cnc(Nc3ccc(C(=O)N[C@H]4CC[C@H](N5CCN(CC6CC6)CC5)CC4)cc3OC)nc2N1C(C)C [Volasertib]
IC50 [1, 30]: 21 nM
IC50 [4]: 75 nM
synergistic effects with the BRAF inhibitors Vemurafenib and/or Dabrafenib (in words) [6]: synergistic effects only with Dabrafenib
regrowth after removal of drugs (after day 76, by day 97) (in words) [7]: had started to grow back
long-term cell growth under drug until day 76 (in words) ([7]; 40 nM (also 20 nM, data not shown)): killed all cells
effect on melanoma tumors in vivo (in words) [29]: delay growth of melanoma tumors and to cause regression by inducing apoptosis in vivo
